Reference: patent US11787826B2, “Hydrocarbyl tin complex of alkynyl phosphonic acid with antitumor activity and application thereof” (priority 2020, dated 2023)
Like-named read-outs stand apart in the source and are kept apart here.

How the values were obtained:
Assay type in all cases: cell-based
[1] = test system: MCF7 (human breast cancer cells)
Protocol: (§1) MCF-7, HT-29, A549 and HepG2 cells are got from American Tissue Culture Collection, which are cultured with the culture medium containing 10% bovine fetal serum in a CO2-containing incubator at 37° C. MTT method is used to detect cell proliferation and growth inhibition. The number of experimental cells is adjusted to obtain the absorbance at 570 nm. 6 concentrations are set for the compound test solution (0.1 nmol/L˜10 μmol/L). The cells are treated for 72 hours. At least 3 parallel experiments and 3 repeated experiments are conducted for each concentration. The IC50 value is determined by statistical analysis.
(§2) Taking cisplatin as the contrast, the in vitro growth inhibitory activity of Compound 1 and Compound 2 on tumor cells are tested, including MCF7 (human breast cancer cells), HT-29 (human colon cancer cells), A549 (human lung cancer cells) and HepG2 (liver cancer cells).

[2] = test system: HepG2 (liver cancer cells)
Protocol: as §1, §2

[3] = test system: HT-29 (human colon cancer cells)
Protocol: as §1, §2

[4] = test system: A549 (human lung cancer cells)
Protocol: as §1, §2

[5] = MCF7 cells, MTT, 72 hours treatment
[6] = HepG2 cells, MTT, 72 hours treatment
[7] = HT-29 cells, MTT, 72 hours treatment
[8] = A549 cells, MTT, 72 hours treatment

Compound | IC50 [1, 5] | IC50 [2, 6] | IC50 [3, 7] | IC50 [4, 8] | IC50 [1] | IC50 [2] | IC50 [3] | IC50 [4]
N.N.[Cl][Pt][Cl] [Cisplatin, cisplatin, reference compound] | 43000 nM | 17000 nM | 35000 nM | 1300 nM |  |  |  | 
Tri-n-butyltin (IV) (3,5-dimethylphenyl) Acetylenyl Phosphonic Acid Derivatives [Compound 1] | 194 nM | 211 nM | 635 nM | 33 nM |  |  |  | 
tri-n-butyltin (IV) (3-Trifluoromethyl Phenyl) acetylenyl phosphonic acid derivatives [Compound 2] |  |  |  |  | 1730 nM | 872 nM | 962 nM | 274 nM
